Experiments:
Assay type in all cases: in vivo, human
panel of 10 persons [1] = assay: Taste masking effect on MDLA (200 ppm) in carbonated juice drink; conditions: scale 1-no taste to 7-unbearable taste
Description: The evaluation of the taste was based on the article titled “Reduction of saltiness and bitterness after a chlorhexidine rinse”, Chem. Senses 26: 105-116 (2001). […] The organoleptic studies were performed with a panel of 10 persons who were trained in experiments involving the tasting of bitter constituents. The panel was asked to compare samples containing a cationic surfactant alone or combined with one or more masking agent. The members of the panel were asked to indicate which sample was less bitter, thereby taking into account the scale of values defined as given above.

panel of 10 persons [2] = assay: Organoleptic taste evaluation of LAE (200 ppm) with masking agents in carbonated juice drink; conditions: scale 1-no taste to 7-unbearable taste
Description: The combination of the test compound neohespiridin (NHDC) with LAE was investigated in a carbonated oral juice drink (a base sugar syrup with concentrated organic juice, manufactured by […] control solution of 200 ppm LAE in the juice drink was prepared. The test samples were prepared by direct dissolution of the test compound in the control solution. The test samples were compared with the control solution and with an untreated (blank) juice drink. The evaluation of the taste was based on the article titled “Reduction of saltiness and bitterness after a chlorhexidine rinse”, Chem. Senses 26: 105-116 (2001). […] The organoleptic studies were performed with a panel of 10 persons who were trained in experiments involving the tasting of bitter constituents. The panel was asked to compare samples containing a cationic surfactant alone or combined with one or more masking agent. The members of the panel were asked to indicate which sample was less bitter, thereby taking into account the scale of values defined as given above. The combination of LAE with only one masking agent, NAF®, was compared with a combination of several masking agents (one of these being NAF®) in carbonated orange juice drinks. The manner of determination of the organoleptic results is the same as described in example 1. The results are reported in the following table 3 where a solution A is compared with a solution B. Composition of solutions (all containing 200 ppm LAE): […] Different types of NAF® are investigated ([…] lemon, NAF® C Orange, etc., all produced by Ogawa). The carbonated orange juice drink is produced by Hausmann S.A.

panel of 10 persons [3] = assay: Determination of the taste in toothpaste containing LAE (7,500 ppm); conditions: scale 1-no taste to 7-unbearable taste
Description: The evaluation of the taste was based on the article titled “Reduction of saltiness and bitterness after a chlorhexidine rinse”, Chem. Senses 26: 105-116 (2001). […] The organoleptic studies were performed with a panel of 10 persons who were trained in experiments involving the tasting of bitter constituents. The panel was asked to compare samples containing a cationic surfactant alone or combined with one or more masking agent. The members of the panel were asked to indicate which sample was less bitter, thereby taking into account the scale of values defined as given above. Determination of the taste in toothpaste. The toothpaste used is a standard opaque […] prepared by the addition of (in g): [table] […] A control sample contained LAE in a concentration of 7,500 ppm. The same concentration of LAE was present in all further investigated samples. […] The sweetening agents sorbitol and lactilol were investigated in the same test as described in example 11. The samples were prepared in similar manner, the concentration of LAE was 7,500 ppm.

consumer = assay: Organoleptic experiments (beverages, toothpaste, food matrix, cosmetic preparation); conditions: for neutralisation of the bitter taste of the cationic surfactant: high doses, combined with a cationic surfactant of formula (1), numerous experiments
panel of 10 persons [4] = assay: Determination of the taste masking in toothpaste containing MDLA (7,500 ppm); conditions: product 3,330 ppm + 7,500 ppm MDLA in toothpaste; scale 1-no taste to 7-unbearable taste
Description: The evaluation of the taste was based on the article titled “Reduction of saltiness and bitterness after a chlorhexidine rinse”, Chem. Senses 26: 105-116 (2001). […] The organoleptic studies were performed with a panel of 10 persons who were trained in experiments involving the tasting of bitter constituents. The panel was asked to compare samples containing a cationic surfactant alone or combined with one or more masking agent. The members of the panel were asked to indicate which sample was less bitter, thereby taking into account the scale of values defined as given above. Determination of the taste masking in toothpaste. The toothpaste used was produced in the manner described in example 11.

[5] = test compound 1,000 ppm + 200 ppm MDLA in juice drink
[6] = test compound 500 ppm + 200 ppm LAE in juice drink
[7] = test compound 1,000 ppm + 200 ppm LAE in juice drink
[8] = sweetening agent 200,000 ppm + 7,500 ppm LAE in toothpaste
[9] = test compound 10,000 ppm + 200 ppm MDLA in juice drink
[10] = test compound 10,000 ppm + 200 ppm LAE in juice drink
[11] = test compound 60,000 ppm + 200 ppm LAE in juice drink

For `CC1(C)[C@@H](O[C@H]2O[C@H](C(=O)O)[C@@H](O)[C@H](O)[C@H]2O[C@@H]2O[C@H](C(=O)O)[C@@H](O)[C@H](O)[C@H]2O)CC[C@]2(C)[C@H]3C(=O)C=C4[C@@H]5C[C@@](C)(C(=O)O)CC[C@]5(C)CC[C@@]4(C)[C@]3(C)CC[C@@H]12` [Glycyrrhizinate, monoammonium glycyrrhizinate], the Organoleptic results (panel of 10 persons [1]; [5]) was 2.4, the Organoleptic results (panel of 10 persons [2]; test compound 250 ppm + 200 ppm LAE in juice drink) was 2.3 and the Organoleptic results (panel of 10 persons [2]; [6]) was 2. It also gave an Organoleptic results (panel of 10 persons [2]; [7]) of 2.

Work on `CCCCCCCCCCCC(=O)N[C@@H](CCCN=C(N)N)C(=O)OCC.Cl` [LAE, ethyl ester of the lauramide of the arginine monohydrochloride] yielded an Organoleptic result (panel of 10 persons [3]; Control: 7,500 ppm LAE in toothpaste, no masking agent) of 5.4.

With `OC[C@@H](O)[C@@H](O[C@@H]1O[C@H](CO)[C@H](O)[C@H](O)[C@H]1O)[C@H](O)[C@@H](O)CO` [Lactitol, lactitol] the “neutralisation of the bitter taste of the cationic surfactant” value (shortened to “neutralisation”) (consumer) was “does not neutralise the bitter taste” and the Organoleptic result (panel of 10 persons [3]; [8]) was 5.1.

`COc1ccc(CCC(=O)c2c(O)cc(O[C@@H]3O[C@H](CO)[C@@H](O)[C@H](O)[C@H]3O[C@@H]3O[C@@H](C)[C@H](O)[C@@H](O)[C@H]3O)cc2O)cc1O` [NHDC] gave an Organoleptic results (panel of 10 persons [2]; test compound 1 ppm + 200 ppm LAE in juice drink) of 2.5.

With `CCCCCCCCCCCCOS(=O)(=O)[O-].[Na+]` [SDS, sodium dodecyl sulfate] the “taste of the toothpaste” value (consumer; cationic surfactant of formula (1) combined only with SDS, cosmetic preparation) was “smooth taste”, the Organoleptic results (panel of 10 persons [1]; test compound 3,320 ppm + 200 ppm MDLA in juice drink) was 2.6 and the Organoleptic results (panel of 10 persons [2]; test compound 1,330 ppm + 200 ppm LAE in juice drink) was 2.9. For the same compound, the Organoleptic results (panel of 10 persons [2]; test compound 1,960 ppm + 200 ppm LAE in juice drink) was 2.3, the Organoleptic results (panel of 10 persons [2]; test compound 3,320 ppm + 200 ppm LAE in juice drink) was 1.6 and the Organoleptic result (panel of 10 persons [4]) was 2.9. It also gave an Organoleptic result (panel of 10 persons [3]; product 1,960 ppm + 7,500 ppm LAE in toothpaste) of 2.9 and an Organoleptic result (panel of 10 persons [3]; product 3,330 ppm + 7,500 ppm LAE in toothpaste) of 2.8.

With `OC[C@@H](O)[C@@H](O)[C@H](O)[C@@H](O)CO` [Sorbitol, sorbitol] the “neutralisation” value (consumer) was “does not neutralise the bitter taste” and the Organoleptic result (panel of 10 persons [3]; [8]) was 4.9.

With `OC[C@H]1O[C@H](O[C@]2(CCl)O[C@H](CCl)[C@@H](O)[C@@H]2O)[C@H](O)[C@@H](O)[C@H]1Cl` [Sucralose, sucralose] the Organoleptic results (panel of 10 persons [2]; test compound 5 ppm + 200 ppm LAE in juice drink) was 2.7.

`OC[C@@H](O)[C@@H](O)[C@H](O)[C@H](O)CO` [mannitol] was tested, and the “neutralisation” value (consumer) was “does not neutralise the bitter taste”.

`CC(=O)[O-].[Na+]` [sodium acetate] showed an Organoleptic results (panel of 10 persons [1]; [9]) of 2.8, an Organoleptic results (panel of 10 persons [2]; [7]) of 2.8 and an Organoleptic results (panel of 10 persons [2]; [10]) of 2.3.

With `N[C@@H](CCC(=O)[O-])C(=O)[O-].[Na+].[Na+]` [sodium glutamate] the Organoleptic results (panel of 10 persons [1]; [5]) was 5.4, the Organoleptic results (panel of 10 persons [2]; [7]) was 5.0 and the Organoleptic results (panel of 10 persons [2]; [11]) was 4.8.

For `OC[C@H]1O[C@@](CO)(O[C@H]2O[C@H](CO)[C@@H](O)[C@H](O)[C@H]2O)[C@@H](O)[C@@H]1O` [sugar], the “neutralisation” value (consumer) was “does not neutralise the bitter taste”, the Organoleptic results (panel of 10 persons [1]; [9]) was 5.1 and the Organoleptic results (panel of 10 persons [2]; [10]) was 5.0. For the same compound, the Organoleptic results (panel of 10 persons [2]; [11]) was 4.8.

In the case of `OC[C@H]1O[C@@H]2O[C@H]3[C@H](O)[C@@H](O)[C@@H](O[C@H]4[C@H](O)[C@@H](O)[C@@H](O[C@H]5[C@H](O)[C@@H](O)[C@@H](O[C@H]6[C@H](O)[C@@H](O)[C@@H](O[C@H]7[C@H](O)[C@@H](O)[C@@H](O[C@H]8[C@H](O)[C@@H](O)[C@@H](O[C@H]1[C@H](O)[C@H]2O)O[C@@H]8CO)O[C@@H]7CO)O[C@@H]6CO)O[C@@H]5CO)O[C@@H]4CO)O[C@@H]3CO` [β-cyclodextrin], the Organoleptic results (panel of 10 persons [2]; [7]) is reported as 2.1 and the Organoleptic result (panel of 10 persons [3]; product 2,000 ppm + 7,500 ppm LAE in toothpaste) is reported as 2.7.

With lysozyme the Organoleptic results (panel of 10 persons [1]; test compound 2,500 ppm + 200 ppm MDLA in juice drink) was 2.7, the Organoleptic results (panel of 10 persons [2]; [6]) was 2.5 and the Organoleptic results (panel of 10 persons [2]; test compound 2,500 ppm + 200 ppm LAE in juice drink) was 2.

Source: patent US20100028325A1, “New Combination Of Cationic Preservatives With Taste-Masking Components” (LABORATORIOS MIRET, S.A., priority 2007, published 2010)
